Patent US9555137B2, “Uses of labeled HSP90 inhibitors” (Sloan-Kettering Institute for Cancer Research, priority 2011, dated 2017)

Key:
caspase-3,7 = assay: caspase 3,7 activation assay in AML cell lines; assay type: cell-based; details: 24 h
Experimental: A ten-fold, in MOLM-13 and M0-91, and two-fold, in Kasumi-1 and SKNO-1, increase in caspase-3,7 activation was observed as early as 24 h. Essentially no live cells were detected for the M0-91 cell line after 48 h of HSP90 inhibitor treatment. In the most sensitive cells, MOLM-13 and M0-91, apoptosis was associated with downregulation of the anti-apoptotic molecule Bcl-xL.
Cells were plated and treated as described in the growth inhibition assay section. Following a 24 h or 48 h exposure of cells to Hsp90 inhibitors, 100 μL buffer containing 10 mM Hepes, pH 7.5, 2 mM EDTA, 0.1% CHAPS, 0.1 mg/mL PMSF, Complete Protease Inhibitor mix (#1697498; Roche), and the caspase substrate Z-DEVD-R110 (#R22120; Molecular Probes) at 25 μM was added to each well. Plates were placed on an orbital shaker to promote cell lysis and reaction. The fluorescence signal of each well was measured in an Analyst GT (Molecular Dev ices) microplate reader (excitation 485 nm; emission at 530 nm). The percentage increase in caspase-3,7 activity was calculated by comparison of the fluorescence reading obtained from treated versus control cells. All experimental data were analyzed using SOFTmax Pro 4.3.1 and plotted using Prism 4.0 (Graphpad Software Inc., San Diego, Calif.).

p-AKT, p-STAT5 = assay: pharmacodynamic study in M0-91 tumors xenografted in mice; assay type: in vivo
Experimental: We next analyzed the pharmacodynamic effects of HSP90 inhibition in both HEL and M0-91 tumors xenografted in mice. Unlike the cultured cells, the use of the in vivo model allows real-time monitoring of HSP90-dependent pathways inhibition.
Four- to 6-week-old nu/nu athymic female mice were obtained from Taconic Farms. Experiments were carried out under an Institutional Animal Care and Use Committee-approved protocol, and institutional guidelines for the proper and humane use of animals in research were followed. HEL and M0-91 cells were subcutaneously implanted in the right flank of mice using a 20-gauge needle and allowed to grow. […] For this assay, tumors were allowed to reach 6-8 mm in diameter before treatment. […] Tumors were homogenized and proteins analyzed by western blot as described above.

[1] = tested on: breast cancer tumor specimens; assay: ex vivo sensitivity of breast cancer fresh tissue sections to PU-H71; assay type: cell-based, human; details: TNBC resistant (PT#14)
Description: From preliminary analyses we have learned that fresh tissue slicing provides a quick and more efficient ex vivo method for HSP90 inhibition evaluation than primary cell isolation. In addition, it preserves the cancer cells in the endogenous environment of the surrounding tissue. This is important since the interaction between stromal cells and tumor cells is known to play a major role in cancer growth and progression. In this method, the tissue (i.e. lesion) is placed in a plastic mold and embedded in 6% agarose. The agarose-embedded tissue is then mounted on the stage of the Vibratome that is submersed in a chilled reservoir (for tissue preservation) containing MEM with 1% penicillin/streptomycin. The tissue is then sliced using metal blades producing serial sections of the lesion that are 200 μm thick. Each section (minus the surrounding agarose-embedding media) is immediately placed in a 24-well tissue culture plate containing MEM with 1% penicillin/streptomycin. From a 5 mm×5 mm piece of tissue approximately 25 sections are produced. This allows for replicate analyses of tissue sections treated with a minimum of 4 doses of the HSP90 inhibitor and one with vehicle only. Replicates can be assayed by both IHC as well as viability assays (automatic plate reader or cytospin preparation) once tissue section undergoes enzymatic dissociation by brief exposure to dispase. […]

[2] = mouse, in vivo
MDA-MB-468 cells = assay: apoptosis of MDA-MB-468 cells (Ethidium Bromide/Acridine Orange); assay type: cell-based, human; details: 48 h
Description: As noted in FIG. 40B, several tumors are more sensitive to HSP90 inhibition than predicted from the preliminary data generated on cell lines.

Raf-1, Akt [3] = assay: onco-client protein degradation in MDA-MB-468 cells (Western blot); assay type: cell-based; details: Homo sapiens, in vitro, 24 h
MDA-MB-468 tumors = assay: efficacy study in MDA-MB-468 xenografted tumors; assay type: in vivo, mice; details: 75 mg/kg, 1× week
Experimental: Mice (n=5) bearing MDA-MB-468 tumors reaching a volume of 100-150 mm^3 were treated i.p. (i.p.) using different doses and schedules, as indicated. Tumor volume was determined by measurement with Vernier calipers, and tumor volume was calculated as the product of its length×width^2×0.4. Tumor volume was expressed on indicated days as the median tumor volume ±SD indicated for groups of mice. Percent (%) tumor growth inhibition values were measured on the final day of study for drug-treated compared with vehicle treated mice and are calculated as 100×{1−[(TreatedFinal day−TreatedDay 1)/(ControlFinal day−ControlDay 1)]}. Tumor regression values were determined by calculating the ratio of median tumor volumes at the time when treatment was initiated to median tumor volume on the final day of study for a given treatment group. Percent (%) tumor regression is 100×[1−(TreatedFinal day/TreatedDay 1)].

[4] = [124I]-PU-H71 PET in cancer patients, tumor exposure to PU-H71; assay type: in vivo, human
[5] = PU-H71 tumor concentrations in MDA-MB-468 tumor-bearing mice (PET-predicted, simulated, LC-MS/MS); details: 75 mg/kg 1× week
Raf-1, Akt [6] = assay: pharmacodynamic analysis of MDA-MB-468 tumors (Western blot); assay type: in vivo, mice; details: Mus musculus, MDA-MB-468, 24 h
359 kinases = assay: scanMAX kinase screen (Ambit); assay type: binding; details: 10 μM
in vivo = details: mouse
HSP90 = assay: 131I-PU-H71 saturation binding in intact cancer cells; assay type: cell-based
Description: The solutions were shaken in an orbital shaker and after 1 hr the cells were isolated and washed with ice cold Tris-buffered saline using a Brandel cell harvester. […] To calculate the percentage of HSP90, cellular HSP90 expression was quantified by using standard curves created of recombinant HSP90 purified from HeLa cells (Stressgen#ADI-SPP-770).

CC(C)NCCCn1c(Sc2cc3c(cc2I)OCO3)nc2c(N)ncnc21 [PU-H71]
increase in caspase-3,7 activation (caspase-3,7; Kasumi-1 and SKNO-1): two-fold | increase in caspase-3,7 activation (caspase-3,7; MOLM-13 and M0-91): ten-fold | duration of apoptosis after one dose (p-AKT, p-STAT5): 96 h | apoptosis [1]: no apoptosis noted at any of the tested concentrations | AUC tumor relative to AUC blood [2]: 15 fold | area under the blood time-activity concentration curve [2]: 0.78 % ID/g-h | area under the tumor time-activity concentration curve [2]: 11.4 % ID/g-h | cells undergoing apoptosis (MDA-MB-468 cells; 0.5 μM): about 50% | cells undergoing apoptosis (MDA-MB-468 cells; about 5 μM): about 100% | EC50 (Raf-1, Akt [3]; read-out: EC50 Akt, onco-client protein degradation): 150 ± 20 nM | EC50 (Raf-1, Akt [3]; read-out: EC50 Raf-1, onco-client protein degradation): 130 ± 20 nM | anti-tumor effect (MDA-MB-468 tumors): significant tumor growth inhibition | tumor AUC0-336h ([4]; 10 mg/m^2 once a week for two weeks): 54 μM-h | tumor exposure ([4]; left lung, 80 mg/m2 2× week): above 760 uM-h | actual tumor concentration by LC-MS/MS ([5]; 24 h after last dose): 5.53±0.26 | actual tumor concentration by LC-MS/MS ([5]; 96 h after last dose): 3.09±1.40 | EC50 (Raf-1, Akt [6]; read-out: EC50 Akt, tumor concentration by PET vs pharmacodynamic effect): 90 ± 80 nM | EC50 (Raf-1, Akt [6]; read-out: EC50 Raf-1, tumor concentration by PET vs pharmacodynamic effect): 240 ± 30 nM | kinase hits (359 kinases): Only SNARK (NUAK family SNF1-like kinase 2) | concentration at 24 h (in vivo; in vivo, 5 mg/kg): 430 nM | concentration at 24 h (in vivo; tumor, 5 mg/kg): 370 nM | concentration at 24 h (in vivo; tumor, 25 mg/kg): 1830 nM | concentration at 24 h (in vivo; tumor, 50 mg/kg): 3670 nM | concentration at 48 h (in vivo; tumor, 75 mg/kg): 3500 ± 270 nM | concentration at 96 h (in vivo; tumor, 75 mg/kg): 1290 ± 290 nM | concentration at 120 h (in vivo; tumor, 75 mg/kg): 690 ± 250 nM | fraction of total cellular HSP90 bound (HSP90; K562 and other established t(9;22)+ CML cell lines): 10.3-23% | fraction of total cellular HSP90 bound (HSP90; MDA-MB-468 cells): approximately 30%
